The values that follow come from publication PMC7180948, “New Insights into 4-Anilinoquinazolines as Inhibitors of Cardiac Troponin I–Interacting Kinase (TNNi3K)” (Molecules, 2020).

Holding throughout (assay): biochemical
Set-up in all cases: KINOMEscan competition binding panel (Eurofins DiscoverX), single concentration, % inhibition
Conditions in all cases: read-out: 7 at 1 µM % inhibition

One assay has as its target T1, ABL1-nonphosphorylated (Homo sapiens, UniProt P00519).
T1 construct: nonphosphorylated
In a few lines: (§1)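 Kinome-wide profiling (KINOMEscan, >400 human kinases) was run at 1 µM compound.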

For another assay, the target named is T2, ABL1-phosphorylated (Homo sapiens, UniProt P00519).
T2 construct: phosphorylated
In a few lines: as §1

Another assay has as its target ACVR2A (Homo sapiens, UniProt P27037). In a few lines: as §1
The next assay has as its target ACVRL1 (Homo sapiens, UniProt P37023). In a few lines:
as §1

Another assay has as its target T3, AMPK-alpha2 (Homo sapiens, UniProt P54646).
T3 construct: gene PRKAA2
An outline of the steps:
as §1

The target of a further assay is AURKA (Homo sapiens, UniProt O14965). In a few lines: as §1
The target in another assay is AXL (Homo sapiens, UniProt P30530). An outline of the steps:
as §1

The next assay addresses CAMK1D (Homo sapiens, UniProt Q8IU85). In a few lines: as §1
For a further assay, the target named is CASK (Homo sapiens, UniProt O14936). In a few lines:
as §1

In a further assay the target is CDKL3 (Homo sapiens, UniProt Q8IVW4). In a few lines:
as §1

The target of the next assay is T4, DCAMKL3 (Homo sapiens, UniProt Q9C098).
T4 construct: gene DCLK3
In a few lines:
as §1

The target of another assay is T5, DRAK2 (Homo sapiens, UniProt O94768).
T5 construct: gene STK17B
In a few lines: as §1

For another assay, the target named is ERBB2 (Homo sapiens, UniProt P04626). An outline of the steps:
as §1

A further assay addresses T6, ERK3 (Homo sapiens, UniProt Q16659).
T6 construct: gene MAPK6
An outline of the steps:
as §1

Assay [1] addresses T7, JAK1(JH2domain-pseudokinase) (Homo sapiens, UniProt P23458).
T7 construct: JH2domain-pseudokinase
In a few lines: as §1

The target in another assay is LATS1 (Homo sapiens, UniProt O95835). An outline of the steps:
as §1

The target of a further assay is T8, MEK3 (Homo sapiens, UniProt P46734).
T8 construct: gene MAP2K3
An outline of the steps: as §1

For the next assay, the target named is MKNK2 (Homo sapiens, UniProt Q9HBH9). In a few lines: as §1
A further assay deals with MST1R (Homo sapiens, UniProt Q04912). In a few lines: as §1
Another assay concerns the target T9, PIP5K2B (Homo sapiens, UniProt P78356).
T9 construct: gene PIP4K2B
An outline of the steps:
as §1

The target in another assay is PRKCD (Homo sapiens, UniProt Q05655). An outline of the steps: as §1
For assay [2], the target named is T10, RSK2(Kin.Dom.2-C-terminal) (Homo sapiens, UniProt P51812).
T10 construct: gene RPS6KA3; Kin.Dom.2-C-terminal
An outline of the steps:
as §1

The target of another assay is T11, SgK110 (Homo sapiens, UniProt P0C264).
T11 construct: gene SBK3
An outline of the steps:
as §1

The target of another assay is TGFBR1 (Homo sapiens, UniProt P36897). In a few lines: as §1

What is called inhibition is the percentage by which the read-out fell short of the control.

Chain of CDKL3 (Q8IVW4 whole entry): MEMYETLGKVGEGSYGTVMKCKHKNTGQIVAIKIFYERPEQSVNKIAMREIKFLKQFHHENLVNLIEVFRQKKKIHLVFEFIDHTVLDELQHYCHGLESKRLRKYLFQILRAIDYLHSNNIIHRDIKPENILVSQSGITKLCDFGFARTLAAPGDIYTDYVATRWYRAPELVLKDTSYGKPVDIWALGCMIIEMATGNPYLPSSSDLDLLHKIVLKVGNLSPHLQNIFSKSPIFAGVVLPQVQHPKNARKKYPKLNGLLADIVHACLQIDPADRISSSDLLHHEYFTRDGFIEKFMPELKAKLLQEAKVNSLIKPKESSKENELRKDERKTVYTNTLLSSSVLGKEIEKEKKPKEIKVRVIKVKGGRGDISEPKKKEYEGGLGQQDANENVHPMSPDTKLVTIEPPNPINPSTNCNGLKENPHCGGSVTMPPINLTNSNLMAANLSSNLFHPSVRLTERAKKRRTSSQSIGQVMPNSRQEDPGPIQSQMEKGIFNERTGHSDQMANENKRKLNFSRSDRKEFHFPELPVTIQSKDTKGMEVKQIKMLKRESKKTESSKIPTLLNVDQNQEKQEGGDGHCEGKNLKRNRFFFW
T3 sequence (P54646 whole entry): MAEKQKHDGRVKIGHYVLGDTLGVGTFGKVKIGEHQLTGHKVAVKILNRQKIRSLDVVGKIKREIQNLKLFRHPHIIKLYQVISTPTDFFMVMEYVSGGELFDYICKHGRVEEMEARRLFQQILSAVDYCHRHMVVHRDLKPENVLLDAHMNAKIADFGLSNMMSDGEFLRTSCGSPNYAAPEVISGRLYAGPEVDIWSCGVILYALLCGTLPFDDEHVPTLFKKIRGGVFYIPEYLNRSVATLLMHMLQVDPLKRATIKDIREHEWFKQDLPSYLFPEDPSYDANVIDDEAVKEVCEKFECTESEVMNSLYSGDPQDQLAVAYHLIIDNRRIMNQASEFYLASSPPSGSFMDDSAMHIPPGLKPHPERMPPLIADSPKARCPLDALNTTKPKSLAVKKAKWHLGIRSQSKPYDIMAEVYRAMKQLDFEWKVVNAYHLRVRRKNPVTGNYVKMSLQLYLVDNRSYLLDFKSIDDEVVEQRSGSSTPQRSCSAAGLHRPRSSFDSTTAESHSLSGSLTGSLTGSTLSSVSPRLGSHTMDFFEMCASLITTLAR
Chain of CAMK1D (Q8IU85 whole entry): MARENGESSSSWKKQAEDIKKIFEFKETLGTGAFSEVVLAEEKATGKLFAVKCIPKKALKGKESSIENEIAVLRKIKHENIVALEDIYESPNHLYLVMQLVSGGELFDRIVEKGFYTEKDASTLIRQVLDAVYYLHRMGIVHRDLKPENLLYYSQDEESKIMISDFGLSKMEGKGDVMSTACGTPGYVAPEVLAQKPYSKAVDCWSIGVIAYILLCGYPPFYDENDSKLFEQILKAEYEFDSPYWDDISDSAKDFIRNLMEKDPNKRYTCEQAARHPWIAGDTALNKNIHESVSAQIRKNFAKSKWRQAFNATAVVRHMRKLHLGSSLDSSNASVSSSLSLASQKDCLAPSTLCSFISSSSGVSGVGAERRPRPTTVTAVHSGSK
Chain of PRKCD (Q05655 whole entry): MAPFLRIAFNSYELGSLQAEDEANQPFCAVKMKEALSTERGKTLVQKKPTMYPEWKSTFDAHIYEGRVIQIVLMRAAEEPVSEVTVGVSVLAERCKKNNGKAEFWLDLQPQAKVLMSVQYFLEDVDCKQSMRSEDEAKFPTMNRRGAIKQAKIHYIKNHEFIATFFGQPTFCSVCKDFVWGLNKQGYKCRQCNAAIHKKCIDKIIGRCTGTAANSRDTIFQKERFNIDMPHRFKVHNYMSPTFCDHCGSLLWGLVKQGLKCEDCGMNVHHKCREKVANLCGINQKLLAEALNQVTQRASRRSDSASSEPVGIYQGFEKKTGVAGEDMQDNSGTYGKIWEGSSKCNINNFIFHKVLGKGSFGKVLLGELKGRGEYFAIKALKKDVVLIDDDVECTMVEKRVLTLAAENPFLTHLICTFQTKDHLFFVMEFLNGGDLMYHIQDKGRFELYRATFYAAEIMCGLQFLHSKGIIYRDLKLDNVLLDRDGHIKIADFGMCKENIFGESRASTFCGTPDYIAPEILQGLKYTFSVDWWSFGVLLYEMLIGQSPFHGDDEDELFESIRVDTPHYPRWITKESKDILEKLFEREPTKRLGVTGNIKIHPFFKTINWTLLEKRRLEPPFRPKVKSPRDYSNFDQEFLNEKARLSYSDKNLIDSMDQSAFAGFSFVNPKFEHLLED
Chain of AXL (P30530 whole entry): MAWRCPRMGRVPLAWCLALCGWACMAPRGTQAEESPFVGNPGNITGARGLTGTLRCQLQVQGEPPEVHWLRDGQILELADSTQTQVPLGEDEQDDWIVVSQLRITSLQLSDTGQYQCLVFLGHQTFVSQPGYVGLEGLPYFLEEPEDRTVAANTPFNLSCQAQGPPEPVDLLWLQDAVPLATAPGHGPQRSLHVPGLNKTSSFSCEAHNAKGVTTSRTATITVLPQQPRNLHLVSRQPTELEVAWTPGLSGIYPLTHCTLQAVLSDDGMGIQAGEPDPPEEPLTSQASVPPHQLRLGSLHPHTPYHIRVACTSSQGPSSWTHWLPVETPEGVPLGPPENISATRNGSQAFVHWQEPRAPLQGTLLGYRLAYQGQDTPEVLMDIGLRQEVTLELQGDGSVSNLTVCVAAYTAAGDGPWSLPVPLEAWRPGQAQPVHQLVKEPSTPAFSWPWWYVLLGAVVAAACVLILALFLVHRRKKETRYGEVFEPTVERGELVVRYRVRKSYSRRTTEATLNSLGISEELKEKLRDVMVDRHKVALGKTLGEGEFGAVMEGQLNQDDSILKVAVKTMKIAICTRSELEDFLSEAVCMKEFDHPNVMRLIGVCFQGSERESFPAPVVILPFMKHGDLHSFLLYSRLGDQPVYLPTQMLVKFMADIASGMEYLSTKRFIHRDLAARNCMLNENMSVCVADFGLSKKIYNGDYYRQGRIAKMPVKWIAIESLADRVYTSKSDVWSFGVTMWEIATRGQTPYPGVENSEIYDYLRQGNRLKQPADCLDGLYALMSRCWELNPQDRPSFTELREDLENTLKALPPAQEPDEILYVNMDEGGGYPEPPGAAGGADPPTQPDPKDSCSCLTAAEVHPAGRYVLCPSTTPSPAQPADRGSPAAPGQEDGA
T8 sequence (P46734 whole entry): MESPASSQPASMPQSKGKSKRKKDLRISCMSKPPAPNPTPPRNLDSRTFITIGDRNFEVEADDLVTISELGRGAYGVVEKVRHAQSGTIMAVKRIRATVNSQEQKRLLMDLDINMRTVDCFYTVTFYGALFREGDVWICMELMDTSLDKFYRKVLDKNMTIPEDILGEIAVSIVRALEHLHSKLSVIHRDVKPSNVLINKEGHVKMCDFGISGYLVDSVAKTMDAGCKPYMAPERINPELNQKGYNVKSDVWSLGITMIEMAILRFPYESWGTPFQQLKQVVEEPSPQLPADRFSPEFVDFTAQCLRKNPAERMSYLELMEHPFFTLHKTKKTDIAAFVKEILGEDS
T6 sequence (Q16659 whole entry): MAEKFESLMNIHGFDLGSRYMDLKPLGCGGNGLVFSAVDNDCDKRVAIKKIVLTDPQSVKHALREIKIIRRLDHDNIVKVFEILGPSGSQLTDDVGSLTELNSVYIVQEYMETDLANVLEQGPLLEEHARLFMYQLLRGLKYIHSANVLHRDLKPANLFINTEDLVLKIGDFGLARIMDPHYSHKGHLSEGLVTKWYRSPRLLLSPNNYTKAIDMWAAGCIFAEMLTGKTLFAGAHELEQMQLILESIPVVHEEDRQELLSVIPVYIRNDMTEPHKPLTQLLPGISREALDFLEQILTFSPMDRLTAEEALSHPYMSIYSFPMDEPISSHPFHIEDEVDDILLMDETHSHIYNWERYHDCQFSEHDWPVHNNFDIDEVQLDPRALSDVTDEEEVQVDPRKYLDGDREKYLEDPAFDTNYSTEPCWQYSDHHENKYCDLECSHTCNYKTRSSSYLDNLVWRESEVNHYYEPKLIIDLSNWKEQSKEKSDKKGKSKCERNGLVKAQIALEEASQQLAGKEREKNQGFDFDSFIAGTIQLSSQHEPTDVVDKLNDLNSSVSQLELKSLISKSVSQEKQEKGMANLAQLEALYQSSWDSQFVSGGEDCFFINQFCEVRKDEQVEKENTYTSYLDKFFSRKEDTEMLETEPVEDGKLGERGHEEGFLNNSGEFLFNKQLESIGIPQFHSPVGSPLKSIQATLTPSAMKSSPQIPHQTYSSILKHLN
T5 sequence (O94768 whole entry): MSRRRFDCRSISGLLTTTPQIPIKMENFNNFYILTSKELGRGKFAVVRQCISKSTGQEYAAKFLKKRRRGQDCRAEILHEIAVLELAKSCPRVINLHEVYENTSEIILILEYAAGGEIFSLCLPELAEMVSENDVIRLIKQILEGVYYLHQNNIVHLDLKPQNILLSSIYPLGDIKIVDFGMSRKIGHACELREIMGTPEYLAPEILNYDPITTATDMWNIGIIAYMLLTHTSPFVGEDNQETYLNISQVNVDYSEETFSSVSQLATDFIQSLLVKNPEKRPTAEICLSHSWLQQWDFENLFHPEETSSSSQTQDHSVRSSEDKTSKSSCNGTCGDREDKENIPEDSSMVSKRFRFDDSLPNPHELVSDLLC
T9 sequence (P78356 whole entry): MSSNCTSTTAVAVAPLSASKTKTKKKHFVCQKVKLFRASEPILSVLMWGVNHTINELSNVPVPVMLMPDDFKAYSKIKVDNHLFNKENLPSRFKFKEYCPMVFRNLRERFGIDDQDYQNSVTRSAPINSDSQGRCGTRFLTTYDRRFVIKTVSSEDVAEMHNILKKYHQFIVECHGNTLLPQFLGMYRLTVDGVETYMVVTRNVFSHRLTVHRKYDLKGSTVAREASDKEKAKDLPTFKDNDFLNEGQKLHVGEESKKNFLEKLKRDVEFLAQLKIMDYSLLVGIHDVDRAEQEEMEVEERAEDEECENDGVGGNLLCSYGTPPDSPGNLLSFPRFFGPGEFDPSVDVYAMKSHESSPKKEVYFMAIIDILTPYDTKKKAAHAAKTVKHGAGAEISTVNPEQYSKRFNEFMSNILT

Turning to `CNS(=O)(=O)c1ccc(N(C)C)c(Nc2ncnc3cc(OC)c(OC)cc23)c1` [compound 7, 3-((6,7-dimethoxyquinazolin-4-yl)amino)-4-(dimethylamino)-N-methylbenzenesulfonamide], the inhibition at 1 µM at ABL1-nonphosphorylated was 21%; on ABL1-phosphorylated, 26%; at ACVR2A, 0%; at ACVRL1, 0%; on AMPK-alpha2, 12%; at AURKA, 16%. The inhibition at 1 µM at AXL is 12%; at CAMK1D, 0%; at CASK, 0%; at CDKL3 it was 0%; on DCAMKL3, 15%; on DRAK2 it was 0%. Further, the inhibition at 1 µM came out at 0% on ERBB2; 0% at ERK3; 20% in assay [1]; 0% at LATS1; 4% on MEK3; 13% at MKNK2. The inhibition at 1 µM at MST1R was 3%; at PIP5K2B, 0%; at PRKCD, 24%; in [2], 33%; at SgK110, 0%; on TGFBR1, 0%.
